Measured values taken from ChEMBL document CHEMBL1201862, “PubChem BioAssay data set” (2004).
Calls of active or inactive are those of the source.

Tests used:
Aminopeptidase N = molecular target: T1, Aminopeptidase N (Plasmodium falciparum FcB1/Columbia, UniProt O96935); experiment: malaria alanyl aminopeptidase activity blockers – biochemical, fluorogenic H-Leu-NHMec substrate, 1536-well (AID 1445); parameters: species or system Plasmodium falciparum 3D7, 3D7
T1 sequence (O96935 whole entry): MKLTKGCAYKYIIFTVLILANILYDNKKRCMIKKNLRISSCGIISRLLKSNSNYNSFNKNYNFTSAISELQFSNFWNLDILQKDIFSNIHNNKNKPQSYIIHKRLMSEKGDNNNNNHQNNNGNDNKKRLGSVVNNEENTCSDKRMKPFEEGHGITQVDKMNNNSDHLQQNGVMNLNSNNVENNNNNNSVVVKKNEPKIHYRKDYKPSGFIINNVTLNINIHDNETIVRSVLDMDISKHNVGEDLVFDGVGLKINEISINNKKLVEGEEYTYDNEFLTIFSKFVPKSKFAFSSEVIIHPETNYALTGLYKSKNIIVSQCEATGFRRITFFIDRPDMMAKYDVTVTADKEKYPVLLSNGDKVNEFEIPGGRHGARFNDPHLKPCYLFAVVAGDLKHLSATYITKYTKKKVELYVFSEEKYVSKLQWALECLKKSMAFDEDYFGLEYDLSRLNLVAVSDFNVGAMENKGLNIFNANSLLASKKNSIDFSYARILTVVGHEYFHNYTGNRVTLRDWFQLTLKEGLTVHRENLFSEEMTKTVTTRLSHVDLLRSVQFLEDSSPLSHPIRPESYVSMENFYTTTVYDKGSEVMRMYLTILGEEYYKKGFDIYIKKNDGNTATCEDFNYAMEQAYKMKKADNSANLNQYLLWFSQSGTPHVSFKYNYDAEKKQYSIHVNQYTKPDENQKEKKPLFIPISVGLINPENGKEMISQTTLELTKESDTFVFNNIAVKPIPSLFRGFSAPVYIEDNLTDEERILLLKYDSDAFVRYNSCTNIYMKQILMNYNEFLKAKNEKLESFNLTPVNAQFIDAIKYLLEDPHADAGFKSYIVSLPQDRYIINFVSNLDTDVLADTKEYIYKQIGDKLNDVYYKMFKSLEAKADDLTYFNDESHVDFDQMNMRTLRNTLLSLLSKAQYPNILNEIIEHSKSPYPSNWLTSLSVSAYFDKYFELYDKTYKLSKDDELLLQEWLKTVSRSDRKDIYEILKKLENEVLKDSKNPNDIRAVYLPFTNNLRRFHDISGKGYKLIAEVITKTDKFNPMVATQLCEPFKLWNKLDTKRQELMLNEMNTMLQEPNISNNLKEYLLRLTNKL

[1] = THP-1 cell cytotoxicity, dose response, cytotoxicity control for non-replicating M. tuberculosis project (AID 489025); assay type: functional
cells = assay type: functional
Vero = experiment: cells; assay type: functional; conditions: Chlorocebus sabaeus
Prothrombin = Prothrombin (Homo sapiens, UniProt P00734); experiment: Thrombin 1536 HTS Dose Response Confirmation. [Related pubchem assays: 1046 (Thrombin 1536 HTS; hits were confirmed in this assay)]; assay type: functional
Cytochrome P450 2C19 = Cytochrome P450 2C19 (Homo sapiens, UniProt P33261); experiment: Cytochrome panel assay with activity outcomes. Panel member name: p450-cyp2c19 Compounds with AC50 equal or less than 10 uM are considered active; assay type: functional; conditions: read-out: AC50
Cytochrome P450 2C19, sequence (P33261 whole entry): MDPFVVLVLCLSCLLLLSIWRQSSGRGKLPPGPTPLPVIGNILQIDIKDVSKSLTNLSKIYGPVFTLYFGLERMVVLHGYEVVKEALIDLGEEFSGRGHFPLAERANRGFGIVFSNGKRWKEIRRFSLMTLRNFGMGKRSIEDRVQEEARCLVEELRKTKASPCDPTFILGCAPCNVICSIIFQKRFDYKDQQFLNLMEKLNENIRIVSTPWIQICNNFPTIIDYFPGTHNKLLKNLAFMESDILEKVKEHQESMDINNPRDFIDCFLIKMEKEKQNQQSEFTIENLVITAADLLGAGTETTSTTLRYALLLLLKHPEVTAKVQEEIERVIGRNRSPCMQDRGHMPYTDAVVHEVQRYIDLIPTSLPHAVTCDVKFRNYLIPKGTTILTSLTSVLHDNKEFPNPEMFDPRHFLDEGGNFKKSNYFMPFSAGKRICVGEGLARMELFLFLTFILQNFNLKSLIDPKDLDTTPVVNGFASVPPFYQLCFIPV

Cytochrome P450 3A4 = Cytochrome P450 3A4 (Homo sapiens, UniProt P08684);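 further: CYP3A4 tested as one member of a cytochrome P450 panel screen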
Cytochrome P450 3A4, sequence (P08684 whole entry): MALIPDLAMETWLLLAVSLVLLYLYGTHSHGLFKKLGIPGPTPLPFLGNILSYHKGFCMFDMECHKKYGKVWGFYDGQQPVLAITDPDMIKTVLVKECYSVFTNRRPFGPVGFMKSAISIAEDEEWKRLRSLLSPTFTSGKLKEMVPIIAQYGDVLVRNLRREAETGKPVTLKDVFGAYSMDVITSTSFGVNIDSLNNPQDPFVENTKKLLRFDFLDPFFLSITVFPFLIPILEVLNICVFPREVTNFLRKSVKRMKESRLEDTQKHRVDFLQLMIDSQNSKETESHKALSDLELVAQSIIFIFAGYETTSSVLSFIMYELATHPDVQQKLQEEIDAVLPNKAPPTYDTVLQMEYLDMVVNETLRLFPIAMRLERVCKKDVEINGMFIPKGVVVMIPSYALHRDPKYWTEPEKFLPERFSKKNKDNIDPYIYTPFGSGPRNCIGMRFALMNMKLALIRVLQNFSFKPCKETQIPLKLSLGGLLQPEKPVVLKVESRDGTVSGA

[2] = molecular target: T2, Heat shock factor protein 1 (Mus musculus, UniProt P38532); experiment: decrease of HSF1-responsive luciferase luminescence – cell-based, NIH3T3, dose retest, confirmation (AID 2382); assay type: functional;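 further: NIH3T3 fibroblasts with HSF1-driven luciferase reporter stressed by proteasome inhibitor MG132; luminescence from HSF1-driven luciferase expression after 8 hours of MG132 stress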
T2 sequence (P38532 whole entry): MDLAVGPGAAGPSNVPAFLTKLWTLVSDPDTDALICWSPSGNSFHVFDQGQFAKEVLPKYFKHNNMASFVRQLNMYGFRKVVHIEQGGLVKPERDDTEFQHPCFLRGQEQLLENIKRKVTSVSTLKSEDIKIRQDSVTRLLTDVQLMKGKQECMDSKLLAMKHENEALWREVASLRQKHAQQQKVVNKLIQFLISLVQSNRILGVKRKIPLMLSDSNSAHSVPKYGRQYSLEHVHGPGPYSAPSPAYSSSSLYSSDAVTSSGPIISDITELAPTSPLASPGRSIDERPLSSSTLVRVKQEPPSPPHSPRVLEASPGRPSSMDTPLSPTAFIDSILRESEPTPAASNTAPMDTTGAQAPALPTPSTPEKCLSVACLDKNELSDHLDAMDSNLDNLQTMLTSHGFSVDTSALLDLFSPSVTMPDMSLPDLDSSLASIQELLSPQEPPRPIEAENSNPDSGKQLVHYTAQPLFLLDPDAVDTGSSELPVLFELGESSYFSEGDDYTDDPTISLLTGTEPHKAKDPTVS

Cytochrome P450 2C9 = Cytochrome P450 2C9 (Homo sapiens, UniProt P11712)
Cytochrome P450 2C9, sequence (P11712 whole entry): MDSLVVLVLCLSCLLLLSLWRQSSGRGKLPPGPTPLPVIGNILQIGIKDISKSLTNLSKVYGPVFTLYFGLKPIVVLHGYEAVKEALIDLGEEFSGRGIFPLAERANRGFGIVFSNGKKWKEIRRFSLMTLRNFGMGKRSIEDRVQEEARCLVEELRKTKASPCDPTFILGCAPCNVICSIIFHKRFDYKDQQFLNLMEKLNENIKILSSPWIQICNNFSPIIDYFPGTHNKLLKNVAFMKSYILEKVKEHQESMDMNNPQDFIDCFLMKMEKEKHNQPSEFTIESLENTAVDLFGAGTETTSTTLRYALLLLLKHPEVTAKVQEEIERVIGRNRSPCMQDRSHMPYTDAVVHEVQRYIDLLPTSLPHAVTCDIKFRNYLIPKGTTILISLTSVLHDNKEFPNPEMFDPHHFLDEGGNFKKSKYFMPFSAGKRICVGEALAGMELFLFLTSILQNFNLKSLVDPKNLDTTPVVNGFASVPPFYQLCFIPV

[3] = molecular target: T3, Short transient receptor potential channel 4 (Mus musculus, UniProt Q9QUQ5); experiment: calcium entry via TRPC4 opening agents – cell-based, HEK293 TRPC4/mu-opioid, Fluo-4 calcium, dose response (AID 434937); assay type: functional
T3 sequence (Q9QUQ5 whole entry): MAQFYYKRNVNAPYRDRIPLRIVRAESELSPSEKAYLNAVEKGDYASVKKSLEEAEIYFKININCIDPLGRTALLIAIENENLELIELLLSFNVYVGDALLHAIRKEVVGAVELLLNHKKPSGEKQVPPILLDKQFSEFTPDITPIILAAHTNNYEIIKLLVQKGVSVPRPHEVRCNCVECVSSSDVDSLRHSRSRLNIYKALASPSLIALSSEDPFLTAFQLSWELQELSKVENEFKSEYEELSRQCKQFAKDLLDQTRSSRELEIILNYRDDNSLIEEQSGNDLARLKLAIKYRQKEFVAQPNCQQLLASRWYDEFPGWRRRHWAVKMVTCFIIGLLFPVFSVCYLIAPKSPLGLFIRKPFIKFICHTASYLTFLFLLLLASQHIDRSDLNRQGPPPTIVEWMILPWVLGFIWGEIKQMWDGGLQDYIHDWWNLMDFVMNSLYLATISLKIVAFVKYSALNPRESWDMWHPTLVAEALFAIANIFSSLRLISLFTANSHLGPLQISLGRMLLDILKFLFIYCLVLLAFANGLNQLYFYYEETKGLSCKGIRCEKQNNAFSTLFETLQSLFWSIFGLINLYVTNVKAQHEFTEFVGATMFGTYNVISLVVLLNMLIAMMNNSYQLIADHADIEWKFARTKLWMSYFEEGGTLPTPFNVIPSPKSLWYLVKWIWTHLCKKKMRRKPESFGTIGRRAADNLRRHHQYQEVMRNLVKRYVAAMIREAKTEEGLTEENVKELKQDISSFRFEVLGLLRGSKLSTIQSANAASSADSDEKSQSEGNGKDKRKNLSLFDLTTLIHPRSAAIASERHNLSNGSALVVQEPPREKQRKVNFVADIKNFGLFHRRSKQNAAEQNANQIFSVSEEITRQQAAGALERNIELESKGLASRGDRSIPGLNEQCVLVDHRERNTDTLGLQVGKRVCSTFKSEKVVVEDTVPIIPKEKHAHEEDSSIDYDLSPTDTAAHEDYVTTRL

Caspase-6 = molecular target: T4, Caspase-6 (Homo sapiens, UniProt P55212); experiment: inhibition of CASP6 peptide cleavage – biochemical, VEID-R110 fluorescence, cherry-pick, dose response (AID 720632)
T4 sequence (P55212 whole entry): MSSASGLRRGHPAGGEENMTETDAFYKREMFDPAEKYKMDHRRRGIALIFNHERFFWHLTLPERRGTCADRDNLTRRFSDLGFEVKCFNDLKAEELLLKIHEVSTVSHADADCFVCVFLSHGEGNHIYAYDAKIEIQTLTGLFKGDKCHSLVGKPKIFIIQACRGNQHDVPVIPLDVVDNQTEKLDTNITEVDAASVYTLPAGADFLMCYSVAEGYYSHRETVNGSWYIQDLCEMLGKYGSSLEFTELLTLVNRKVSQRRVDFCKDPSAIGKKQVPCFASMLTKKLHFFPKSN

[4] = NIH-3T3 fibroblast cytotoxicity, dose response, cytotoxicity control, cell-based, fluorescence, Alamar Blue, secondary assay (AID 2327); assay type: functional;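 further: NIH-3T3 mouse fibroblasts cultured with fluconazole at 8 µg/mL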
[5] = fluconazole-exposed Candida albicans growth modulators – fluorescence, retest, confirmation (AID 2467); assay type: functional, cell-based
[6] = microbe, parasite or virus in culture; assay type: functional; conditions: Mycobacterium tuberculosis
[7] = molecular target: Heat shock protein HSP 90-alpha (Homo sapiens, UniProt P07900); assay type: functional, organism-based
[8] = reduction of Shn3 3'UTR-driven luciferase in osteoblasts – cell-based, Clone20 osteoblasts, firefly luciferase, cherry-picked, dose response (AID 624132); assay type: functional;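 further: firefly luciferase luminescence from reporter carrying the Shn3 3'UTR in osteoblasts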
[9] = loss of viability in HepG2 cells – cell-based, CellTiter-Glo, cherry-picked, cytotoxicity control for Shn3 inhibitor project, dose response (AID 624134); assay type: functional
[10] = non-specific 3'UTR reporter inhibition in Clone20-Shn3RL – cell-based, Renilla luciferase, cherry-picked, counter-screen for Shn3 inhibitor project, dose response (AID 624133); assay type: functional
[11] = molecular target: T5, Rac GTPase-activating protein 1 (Homo sapiens, UniProt Q9H0H5); experiment: blockers of MgcRacGAP-driven Rac1 GTP hydrolysis – biochemical, ADP Hunter fluorescence, primary and confirmatory, confirmation (AID 624330); assay type: functional
T5 sequence (Q9H0H5 whole entry): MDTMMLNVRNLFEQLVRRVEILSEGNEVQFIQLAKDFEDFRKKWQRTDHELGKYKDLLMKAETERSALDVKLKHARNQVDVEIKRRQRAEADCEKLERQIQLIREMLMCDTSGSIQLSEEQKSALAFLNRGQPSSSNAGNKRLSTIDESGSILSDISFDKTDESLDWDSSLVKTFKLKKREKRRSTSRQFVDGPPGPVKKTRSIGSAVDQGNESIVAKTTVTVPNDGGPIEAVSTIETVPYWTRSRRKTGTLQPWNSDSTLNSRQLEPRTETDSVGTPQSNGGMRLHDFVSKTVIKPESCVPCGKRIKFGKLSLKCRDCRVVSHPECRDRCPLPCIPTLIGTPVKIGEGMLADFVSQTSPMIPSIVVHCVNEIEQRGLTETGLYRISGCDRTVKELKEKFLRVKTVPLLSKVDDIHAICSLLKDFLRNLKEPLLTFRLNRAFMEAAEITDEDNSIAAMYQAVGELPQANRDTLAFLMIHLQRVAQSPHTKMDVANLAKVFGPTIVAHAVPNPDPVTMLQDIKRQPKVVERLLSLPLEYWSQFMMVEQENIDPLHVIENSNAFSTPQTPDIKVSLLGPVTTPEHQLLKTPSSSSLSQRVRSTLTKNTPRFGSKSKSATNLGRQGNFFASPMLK

Compound: Cc1ccc(OCC(=O)N2CCN(C(=O)CCC3CCCC3)CC2)cc1
- IC50 (Aminopeptidase N): 57.3 µM (active)

Compound: Clc1ccc(OCCCNCc2ccccc2)c2ccccc12
- CC50 [1]: 23.6 µM (active)
- IC50 (cells): 12.2 µM (active)
- CC50 (Vero): > 25 µM (active)

Compound: CCC(=O)n1nc(-c2ccco2)nc1SCc1ccccc1
- IC50 (Prothrombin): 0.00342 µM (active)

Compound: CN(C)CCNc1nc(S(=O)(=O)c2ccccc2)c(Cl)s1
- IC50 (Aminopeptidase N): 51.9 µM (active)

Compound: COc1ccccc1NC(=O)CCS(=O)(=O)c1ccccc1
- IC50 (Prothrombin): > 50 µM (not active)

Compound: COC(=O)N1CCC2(CC1)CCN(c1ccccc1)CC2
- AC50 (Cytochrome P450 2C19): 5.01 µM (inconclusive)
- AC50 (Cytochrome P450 3A4): inconclusive

Compound: CCN(CC)S(=O)(=O)c1ccc2c(c1)c(=O)c(C(=O)NCc1ccco1)cn2C
- EC50 [2]: > 195 µM (not active)
- IC50 (Prothrombin): 2.14 µM (active)

Compound: Clc1ccc(Cl)c(OCCCCNCc2ccccc2)c1
- CC50 [1]: 38.1 µM (active)
- IC50 (cells): 36.9 µM (active)

Compound: O=C(O)/C(=C\c1ccccc1)Cc1ccccc1
- AC50 (Cytochrome P450 2C9): 3.98 µM (inconclusive)
- AC50 (Cytochrome P450 3A4): inconclusive

Compound: COC(=O)c1ccc(N2CCN(C)CC2)c(NC(=O)c2cccs2)c1
- EC50 [3]: 2.11 µM (active)

Compound: CC(Sc1nnc(-c2cc3ccccc3o2)n1-c1ccccc1)C(=O)O (stereo unspecified)
- IC50 (Prothrombin): > 50 µM (not active)

Compound: Cc1ccc(/C=C2\SC(=S)N(C3CCS(=O)(=O)C3)C2=O)o1 (stereo unspecified)
- CC50 [1]: > 40 µM (active)

Compound: COCC(=O)N1CCC2(CC1)CCN(C(c1ccccc1)c1ccccc1)CC2
- AC50 (Cytochrome P450 3A4): inconclusive

Compound: O=C(Oc1ccccc1)N1CCC2(CC1)CN(c1ccccn1)C2
- AC50 (Cytochrome P450 3A4): inconclusive

Compound: O=C(NNC(=O)C(c1ccccc1)c1ccccc1)c1cccs1
- IC50 (Prothrombin): > 50 µM (not active)

Compound: CCC12CCCN3CCc4c(n(c5ccccc45)C(O)(C(=O)OC)C1)C32 (stereo unspecified)
- AC50 (Caspase-6): 21.7 µM (active)

Compound: CC(C)(C)C(=O)NC(=S)NNC(=O)c1sc2ccccc2c1Cl
- EC50 [4]: 2.54 µM (inconclusive)
- EC50 [2]: 3.06 µM (active)
- EC50 [5]: 1.35 µM (active)
- CC50 [6]: 6.74 µM (active)
- EC50 [3]: 0.267 µM (active)
- AC50 [7]: 3.26 µM (active)
- AC50 [8]: 19.1 µM (active)
- AC50 [9]: 12.1 µM (active)
- AC50 [10]: 1.54 µM (active)

Compound: CCN1CCN(c2c(Cl)cccc2NC(=O)c2ccc3nsnc3c2)CC1
- EC50 [3]: 0.668 µM (active)

Compound: Cc1ccccc1CN1[C@@H](C)[C@H](c2ccccc2)Oc2cccc(NCC(C)C)c2S1(=O)=O
- AC50 (Caspase-6): 23.3 µM (active)

Compound: Cc1ccccc1S(=O)(=O)N1[C@@H]2CNC[C@H]1[C@@H]2c1ccc(-c2ccc(C#N)cc2)cc1
- AC50 (Caspase-6): 30.9 µM (active)

Compound: Oc1ccc(Cl)cc1/N=C/c1c[nH]nc1O
- IC50 (Aminopeptidase N): 14.3 µM (active)
- IC50 [11]: 30 µM (active)
